According to US20100061928A1, “LABELLED ANALOGUES OF HALOBENZAMIDES AS RADIOPHARMACEUTICALS” (Institut National De La Sante et De La Recherche Medicale …, priority 2006, published 2010):
Structures can show the parent of a compound that is named as a salt. Where two headings read alike, the source gives them in different places.

Columns and labels:
human melanoma (M4Beu) = assay: Cytotoxicity, Hoechst test, M4Beu; conditions: for IC50: read-out: IC50 M4Beu, M4Beu human melanoma, 48 hours incubation, Hoechst test
tumour = assay: Dosimetry with regard to the tumour (MIRD programme, extrapolated to ^131I); conditions: for Effective period: extrapolated to 131I labelling; for Biological period: from biodistribution data
[1] = test system: grafted B16 F0 murine melanoma tumour; assay: Biodistribution of the ^125I-labelled molecules in the melanoma-bearing mouse (autoradiography of whole-body sections); conditions: for Biodistribution, radioactivity concentration in B 16, Mean: B 16 tumour
murine melanoma (B16 F0) = assay: Cytotoxicity, Hoechst test, B16 F0; conditions: for IC50: read-out: IC50 B16, B16 F0 murine melanoma, 48 hours incubation, Hoechst test
[2] = Elimination of the molecules: cumulative urinary and faecal excretion 0-72 hours; format: in vivo, mouse
[3] = test system: human fibroblast cell lines; assay: Cytotoxicity, Hoechst test, human fibroblasts; conditions: read-out: IC50 Fibroblast
[4] = test system: B16 F0 murine melanoma cells; assay: Colony forming technique: chemotherapeutic and radiotherapeutic (^125I) effects in vitro; format: cell-based
Method: The colony forming technique is involved, that is to say the growth of colonies of clones starting from tumour cells (B16 F0 murine melanoma cells) inoculated at a low concentration. This method makes it possible to visualize the cytotoxic and cytostatic properties of the compounds studied. The study was carried out in three parts:
The experiment is carried out on 6-well plates where 200 cells are inoculated in 2 ml of DMEM medium. After 20 hours, the medium is withdrawn and replaced with 2 ml of medium comprising the labelled compound at the desired concentration. This study is carried out in comparison with control wells comprising DMEM medium alone. […] The plates are incubated for 8 days and then the medium is withdrawn. The wells are rinsed with PBS and methanol is added for 3 minutes. Once attached, the cells are coloured with crystal violet with a contact time of 3 minutes. Subsequently, the colonies comprising more than 50 cells are counted using a dedicated counter. The growth of the treated colonies of cells is quantified in comparison with the controls. The activity of the product is expressed by a percentage of inhibition:
100−[(number of treated colonies)/(number of control colonies)]×100

[5] = 1 H after i.v., 125I-labelled, dose = 2.1 MBq
[6] = 3 H after i.v., 125I-labelled, dose = 2.1 MBq
[7] = 6 H after i.v., 125I-labelled, dose = 2.1 MBq
[8] = 24 H after i.v., 125I-labelled, dose = 2.1 MBq
[9] = 72 H after i.v., 125I-labelled, dose = 2.1 MBq

With CCN(CC)CCNC(=O)c1cccc2c(Nc3ccc(NS(C)(=O)=O)cc3OC)c3cc(I)ccc3nc12 [compound 129, N-(2-diethylaminoethyl)-7-iodo-9-(4-methanesulphonamido-2-methoxyanilino)acridine-4-carboxamide dihydrochloride] the “cytotoxic effectiveness (in words)” value (human melanoma (M4Beu); M4Beu human cells, compared with amsacrine) was “best effectiveness with regard to the M4Beu human cells, close to the values obtained for amscrine”, the Effective period (tumour) was 88.3 h and the Biological period (tumour) was 162.3 hours. The “Biodistribution, Mean, GB” value ([1]; GB, 1 H) was 20.19, the “Biodistribution, Mean, GB” value ([1]; GB, 6 H) was 166.43 and the “Biodistribution, Mean, brain” value ([1]; 1 H) was 0.12. For the same compound, the “Biodistribution, Mean, brain” value ([1]; 3 H) was 0.03, the “Biodistribution, Mean, muscle” value ([1]; 3 H) was 0.48 and the “Biodistribution, Mean, muscle” value ([1]; 6 H) was 0.44. The “Biodistribution, Mean, thyroid” value ([1]; thyroid, 6 H) was 34.81.

With CCN(CC)CCNC(=O)c1cccc2nc3cc(I)ccc3nc12 [compound 151, N-(2-diethylaminoethyl)-7-iodophenazine-1-carboxamide dihydrochloride] the IC50 (human melanoma (M4Beu)) was 3.6 µM, the IC50 (murine melanoma (B16 F0)) was 3.6 µM and the “cytotoxic activity compared with DACA (in words)” value (murine melanoma (B16 F0); various cell lines studied (B16 F0, M4Beu, fibroblasts)) was “activities similar to that of DACA”. For the same compound, the “Faecal elimination 0-72 hours (Faeces)” value ([2]; cumulative excretion 0-72 hours, faeces, mice in metabolic cages) was 61%, the “Urinary and faecal elimination 0-72 hours (Total)” value ([2]; cumulative excretion 0-72 hours, urine + faeces) was 66.8% and the “Urinary elimination 0-72 hours (Urine)” value ([2]; cumulative excretion 0-72 hours, urine, mice in metabolic cages) was 5.8%. For the same compound, the “elimination route (in words)” value ([2]; urinary versus faecal, 0-72 hours) was “faecal route predominates”, the IC50 ([3]; Homo sapiens, Fibroblast, 48 h) was 2.7 µM and the inhibition at 2 µM ([4]; Mus musculus, B16F0, cold compound, 2 μM, colony forming, 48 hours contact, read-out: % of inhibition (Chemotherapeutic effects alone)) was 21%. It also gave an inhibition at 4 µM ([4]; Mus musculus, B16F0, cold compound, 4 μM, colony forming, 48 hours contact, read-out: % of inhibition (Chemotherapeutic effects alone)) of 74%, an inhibition at 6 µM ([4]; Mus musculus, B16F0, cold compound, 6 μM, colony forming, 48 hours contact, read-out: % of inhibition (Chemotherapeutic effects alone)) of 87% and an inhibition at 8 µM ([4]; Mus musculus, B16F0, cold compound, 8 μM, colony forming, 48 hours contact, read-out: % of inhibition (Chemotherapeutic effects alone)) of 97%. For the same compound, the inhibition at 10 µM ([4]; Mus musculus, B16F0, cold compound, 10 μM, colony forming, 48 hours contact, read-out: % of inhibition (Chemotherapeutic effects alone)) was 100%, the “Cumulative effect (% inhib) (Radiotherapeutic and chemotherapeutic effects)” value ([4]; cold compound 151 at 2 μM with 0 activity of [125I]-151) was 19% and the Effective period (tumour) was 30.0 h. For the same compound, the Biological period (tumour) was 35.5 hours, the “Biodistribution, radioactivity concentration in B 16, Mean” value (“Biodistribution … in B 16, Mean” below) [1, 5] was 20.96 % ID/g and the “Biodistribution … in B 16, Mean” value [1, 6] was 23.65 % ID/g. The “Biodistribution … in B 16, Mean” value [1, 7] was 27.70 % ID/g, the “Biodistribution … in B 16, Mean” value [1, 8] was 11.47 % ID/g and the “Biodistribution … in B 16, Mean” value [1, 9] was 6.26 % ID/g. For the same compound, the “Biodistribution, radioactivity concentration in GB, Mean” value ([1]; GB, 3 H after i.v., 125I-labelled, dose = 2.1 MBq) was 107.29 % ID/g, the “Biodistribution, radioactivity concentration in Ic, Mean” value (“Biodistribution … in Ic, Mean” for short) [1, 5] was 56.33 % ID/g and the “Biodistribution … in Ic, Mean” value [1, 6] was 52.72 % ID/g. For the same compound, the “Biodistribution … in Ic, Mean” value [1, 7] was 52.58 % ID/g, the “Biodistribution … in Ic, Mean” value [1, 8] was 2.30 % ID/g and the “Biodistribution, radioactivity concentration in Sc, Mean” value (“Biodistribution … in Sc, Mean” below) [1, 5] was 11.25 % ID/g. The “Biodistribution … in Sc, Mean” value [1, 6] was 14.52 % ID/g, the “Biodistribution … in Sc, Mean” value [1, 7] was 16.09 % ID/g and the “Biodistribution … in Sc, Mean” value [1, 8] was 2.95 % ID/g. For the same compound, the “tumour concentration, times higher than with BZA” value ([1]; at 72 hours (FIG. 1B)) was 8 times, the “Biodistribution, radioactivity concentration in blood, Mean” value [1, 5] was 3.92 % ID/g and the “Biodistribution, radioactivity concentration in blood, Mean” value [1, 6] was 1.39 % ID/g. The “Biodistribution, radioactivity concentration in brain, Mean” value [1, 5] was 1.79 % ID/g, the “Biodistribution, radioactivity concentration in brain, Mean” value [1, 6] was 0.44 % ID/g and the “tumour concentration, % of the injected dose per gram of tumour” value ([1]; from the first hour) was 21 % ID/g. The “Biodistribution, radioactivity concentration in kidney, Mean” value (shortened to “Biodistribution … in kidney, Mean”) [1, 5] was 9.45 % ID/g, the “Biodistribution … in kidney, Mean” value [1, 6] was 3.42 % ID/g and the “Biodistribution … in kidney, Mean” value [1, 7] was 1.55 % ID/g. The “Biodistribution, radioactivity concentration in liver, Mean” value (“Biodistribution … in liver, Mean” for short) [1, 5] was 10.94 % ID/g, the “Biodistribution … in liver, Mean” value [1, 6] was 5.83 % ID/g and the “Biodistribution … in liver, Mean” value [1, 7] was 4.04 % ID/g. The “Biodistribution … in liver, Mean” value [1, 8] was 1.44 % ID/g, the “Biodistribution, radioactivity concentration in lungs, Mean” value (shortened to “Biodistribution … in lungs, Mean”) [1, 5] was 8.77 % ID/g and the “Biodistribution … in lungs, Mean” value [1, 6] was 2.84 % ID/g. The “Biodistribution … in lungs, Mean” value [1, 7] was 1.40 % ID/g, the “Biodistribution, radioactivity concentration in muscle, Mean” value (“Biodistribution … in muscle, Mean” below) [1, 5] was 1.27 % ID/g and the “Biodistribution … in muscle, Mean” value [1, 6] was 0.45 % ID/g. For the same compound, the “Biodistribution … in muscle, Mean” value [1, 7] was 0.42 % ID/g, the “Biodistribution, radioactivity concentration in pancreas, Mean” value [1, 5] was 6.63 % ID/g and the “Biodistribution, radioactivity concentration in pancreas, Mean” value [1, 6] was 1.53 % ID/g. The “Biodistribution, radioactivity concentration in spleen, Mean” value (shortened to “Biodistribution … in spleen, Mean”) [1, 5] was 14.02 % ID/g, the “Biodistribution … in spleen, Mean” value [1, 6] was 13.84 % ID/g and the “Biodistribution … in spleen, Mean” value [1, 7] was 18.88 % ID/g. For the same compound, the “Biodistribution, radioactivity concentration in thyroid, Mean” value (“Biodistribution … in thyroid, Mean” for short) ([1]; thyroid, 3 H after i.v., 125I-labelled, dose = 2.1 MBq) was 8.63 % ID/g, the “Biodistribution … in thyroid, Mean” value ([1]; thyroid, 6 H after i.v., 125I-labelled, dose = 2.1 MBq) was 54.71 % ID/g and the “Biodistribution … in thyroid, Mean” value ([1]; thyroid, 24 H after i.v., 125I-labelled, dose = 2.1 MBq) was 214.42 % ID/g. The “Biodistribution … in thyroid, Mean” value ([1]; thyroid, 72 H after i.v., 125I-labelled, dose = 2.1 MBq) was 12.74 % ID/g, the “Biodistribution, radioactivity concentration in uvea, Mean” value (“Biodistribution … in uvea, Mean” for short) [1, 5] was 14.19 % ID/g and the “Biodistribution … in uvea, Mean” value [1, 6] was 17.49 % ID/g. The “Biodistribution … in uvea, Mean” value [1, 7] was 14.74 % ID/g, the “Biodistribution … in uvea, Mean” value [1, 8] was 11.64 % ID/g and the “Biodistribution … in uvea, Mean” value [1, 9] was 11.19 % ID/g.

CN(C)CCNC(=O)c1cccc2cc3ccccc3nc12 [DACA, reference compound] gave an IC50 (human melanoma (M4Beu)) of 1.8 µM, an IC50 (murine melanoma (B16 F0)) of 0.19 µM and an IC50 ([3]; human fibroblasts, 48 hours incubation, Hoechst test) of 7.1 µM.
